Reference: ChEMBL document CHEMBL1130318, “Inhibition of stromelysin-1 (MMP-3) by P1'-biphenylylethyl carboxyalkyl dipeptides” (J Med Chem, 1997)

Tests used:
[1] = target: 72 kDa type IV collagenase (Homo sapiens, UniProt P08253)
Description: Inhibition of gelatinase A (Matrix metalloprotease-2)

Stromelysin-1 = Stromelysin-1 (Homo sapiens, UniProt P08254)
Description: Inhibition of human stromelysin-1 (Matrix metalloprotease-3)

Mus musculus = test: Effective dose for inhibition of MMP-3 mediated degradation of radiolabeled transferrin in the mouse pleural cavity (PLCAV) after 60 mpk oral dose of inhibitor.; type: functional
[2] = Clearance was measured in rat after administration of compound 20 mg/kg intravenously; type: ADME, organism-based; design: dose 20 mg/kg, route intravenous; details: in vivo, iv
[3] = Plasma half-life was measured in rat after administration of compound 20 mg/kg intravenously; type: ADME, organism-based; design: dose 20 mg/kg, route intravenous; details: iv
[4] = Volume distribution was measured in mouse after administration of compound 20 mg/kg intravenously; type: ADME, organism-based; design: dose 20 mg/kg, route intravenous; details: in vivo, iv, read-out: Vdss
[5] = Plasma half-life was measured in rabbit after administration of compound 12 mg/kg intravenously; details: iv
[6] = Percent oral bioavailability was measured in mouse after administration of compound 20 mg/kg perorally; type: ADME, organism-based; details: in vivo
[7] = Volume distribution was measured in rat after administration of compound 20 mg/kg intravenously; type: ADME, organism-based; design: dose 20 mg/kg, route intravenous; details: in vivo, iv, read-out: Vdss
[8] = Clearance was measured in rabbit after administration of compound 12 mg/kg intravenously; details: in vivo, iv
[9] = Percent oral bioavailability was measured in rat after administration of compound 20 mg/kg perorally; type: ADME, organism-based; details: in vivo
[10] = Volume distribution was measured in rabbit after administration of compound 12 mg/kg intravenously; details: in vivo, iv, read-out: Vdss
[11] = Clearance was measured in mouse after administration of compound 20 mg/kg intravenously; type: ADME, organism-based; design: dose 20 mg/kg, route intravenous; details: in vivo, iv
[12] = Plasma half-life was measured in mouse after administration of compound 20 mg/kg intravenously; type: ADME, organism-based; design: dose 20 mg/kg, route intravenous; details: iv

72 kDa type IV collagenase, sequence (P08253 whole entry): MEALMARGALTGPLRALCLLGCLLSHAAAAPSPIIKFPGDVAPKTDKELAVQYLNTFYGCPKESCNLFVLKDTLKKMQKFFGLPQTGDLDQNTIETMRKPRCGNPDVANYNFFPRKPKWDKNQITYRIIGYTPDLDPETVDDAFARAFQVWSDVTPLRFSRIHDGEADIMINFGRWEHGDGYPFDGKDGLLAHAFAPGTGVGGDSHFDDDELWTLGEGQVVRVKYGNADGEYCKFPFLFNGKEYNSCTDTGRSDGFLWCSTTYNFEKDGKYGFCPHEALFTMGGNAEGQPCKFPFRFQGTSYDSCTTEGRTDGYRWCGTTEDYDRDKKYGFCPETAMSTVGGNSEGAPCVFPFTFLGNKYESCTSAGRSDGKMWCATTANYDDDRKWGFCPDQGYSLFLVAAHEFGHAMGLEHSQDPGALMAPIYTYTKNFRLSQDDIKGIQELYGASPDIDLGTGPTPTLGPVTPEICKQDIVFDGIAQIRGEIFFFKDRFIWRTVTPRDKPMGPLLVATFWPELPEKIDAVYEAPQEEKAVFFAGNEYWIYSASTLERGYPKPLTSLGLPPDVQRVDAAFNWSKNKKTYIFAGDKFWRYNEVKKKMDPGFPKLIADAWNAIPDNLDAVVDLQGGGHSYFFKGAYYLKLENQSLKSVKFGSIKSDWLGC
Stromelysin-1, sequence (P08254 whole entry): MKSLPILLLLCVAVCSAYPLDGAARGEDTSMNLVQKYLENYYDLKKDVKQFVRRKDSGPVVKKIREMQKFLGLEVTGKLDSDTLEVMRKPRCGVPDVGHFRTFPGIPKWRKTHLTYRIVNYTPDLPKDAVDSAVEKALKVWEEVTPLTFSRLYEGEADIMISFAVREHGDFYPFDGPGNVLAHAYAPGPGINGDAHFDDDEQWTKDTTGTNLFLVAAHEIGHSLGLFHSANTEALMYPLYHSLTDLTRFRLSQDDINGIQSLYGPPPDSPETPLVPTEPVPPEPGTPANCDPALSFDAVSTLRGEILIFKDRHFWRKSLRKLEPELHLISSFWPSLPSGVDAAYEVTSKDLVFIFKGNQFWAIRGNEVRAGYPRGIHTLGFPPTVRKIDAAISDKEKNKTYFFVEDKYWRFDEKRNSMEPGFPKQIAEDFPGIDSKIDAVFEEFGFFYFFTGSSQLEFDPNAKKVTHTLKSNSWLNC

Ki [1] [nM]	Ki (Stromelysin-1) [nM]	SMILES	also measured
100	12	CCCC[C@@H](C[C@@H](CCc1ccc(-c2ccc(Cl)cc2Cl)cc1)C(=O)N[C@H](C(=O)NC)C(C)(C)C)C(=O)O	–
61	11	CCCC[C@@H](C[C@@H](CCc1ccc(-c2ccccc2F)cc1)C(=O)N[C@H](C(=O)NC)C(C)(C)C)C(=O)O	–
150	4	CCCC[C@@H](C[C@@H](CCc1ccc(-c2ccc(F)cc2)cc1)C(=O)N[C@H](C(=O)Nc1ccccc1)C(C)(C)C)C(=O)O	–
30	52	CCCC[C@@H](C[C@@H](CCc1ccc(-c2ccc([S+](C)[O-])cc2)cc1)C(=O)N[C@H](C(=O)NC)C(C)(C)C)C(=O)O (some centres not stated)	–
–	38	CC(C)C[C@H](NC(=O)[C@H](CCc1ccc(-c2ccc(F)cc2)cc1)C[C@H](C)C(=O)O)C(=O)Nc1ccccc1	–
–	9400	CCCC[C@@H](C[C@@H](CCc1ccc(-c2ccccc2S(N)(=O)=O)cc1)C(=O)N[C@H](C(=O)NC)C(C)(C)C)C(=O)O	–
1500	3800	CCCC[C@@H](C[C@@H](CCc1ccccc1)C(=O)N[C@H](C(=O)NC)C(C)(C)C)C(=O)O	–
21	15	CCCC[C@@H](C[C@@H](CCc1cccc(-c2ccsc2)c1)C(=O)N[C@H](C(=O)NC)C(C)(C)C)C(=O)O	–
49	12	CCCC[C@@H](C[C@@H](CCc1ccc(-c2cc3ccccc3[nH]2)cc1)C(=O)N[C@H](C(=O)NC)C(C)(C)C)C(=O)O	–
1300	1200	CCCC[C@@H](C[C@@H](CCc1ccc(-c2c(C)cccc2C)cc1)C(=O)N[C@H](C(=O)NC)C(C)(C)C)C(=O)O	–
17	10	CCCC[C@@H](C[C@@H](CCc1ccc(-c2ccccc2S(=O)(=O)NC(C)(C)C)cc1)C(=O)N[C@H](C(=O)NC)C(C)(C)C)C(=O)O	–
25	2	CCCC[C@@H](C[C@@H](CCc1ccc(-c2ccc(F)cc2)cc1)C(=O)N[C@H](C(=O)Nc1ccncc1)C(C)(C)C)C(=O)O	–
94	25	CCCC[C@@H](C[C@@H](CCc1ccc(-c2ccc(-c3ncc[nH]3)cc2)cc1)C(=O)N[C@H](C(=O)NC)C(C)(C)C)C(=O)O	–
–	120	CCCC[C@@H](C[C@@H](CCc1ccc(-c2ccc3ccccc3c2)cc1)C(=O)N[C@H](C(=O)NC)C(C)(C)C)C(=O)O	–
48	21	CCCC[C@@H](C[C@@H](CCc1ccc(-c2cccc(F)c2)cc1)C(=O)N[C@H](C(=O)NC)C(C)(C)C)C(=O)O	–
1900	95	CCCC[C@@H](C[C@@H](CCc1ccc(C2CCCCCC2)cc1)C(=O)N[C@H](C(=O)NC)C(C)(C)C)C(=O)O	–
16	15	CCCC[C@@H](C[C@@H](CCc1ccc(-c2ccc(C=O)cc2)cc1)C(=O)N[C@H](C(=O)NC)C(C)(C)C)C(=O)O	–
13	5	CCCC[C@@H](C[C@@H](CCc1ccc(-c2ccc(SC)cc2)cc1)C(=O)N[C@H](C(=O)NC)C(C)(C)C)C(=O)O	–
84	39	CCCC[C@@H](C[C@@H](CCc1ccc(-c2ccc(-c3ccccc3)cc2)cc1)C(=O)N[C@H](C(=O)NC)C(C)(C)C)C(=O)O	–
–	82	CC(C)C[C@H](NC(=O)[C@H](CCc1ccc(-c2ccccc2)cc1)C[C@H](C)C(=O)O)C(=O)Nc1ccccc1	–
810	1400	CCCC[C@@H](C[C@@H](CCc1ccc(C2CCCO2)cc1)C(=O)N[C@H](C(=O)NC)C(C)(C)C)C(=O)O (some centres not stated)	–
39	37	CCCC[C@@H](C[C@@H](CCc1ccc(-c2ccc(C(F)(F)F)cc2)cc1)C(=O)N[C@H](C(=O)NC)C(C)(C)C)C(=O)O	–
16	1400	CCCC[C@@H](C[C@@H](CCc1ccc(Cc2ccccc2)cc1)C(=O)N[C@H](C(=O)Nc1ccccc1)C(C)(C)C)C(=O)O	–
–	–	CCCc1ccc(CC[C@H](C[C@H](C)C(=O)O)C(=O)N[C@@H](CC(C)C)C(=O)Nc2ccccc2)cc1	ED50 (Mus musculus): 32 mg/kg
580	690	CCCC[C@@H](C[C@@H](CCc1ccc(-c2ccc(C(=O)O)cc2)cc1)C(=O)N[C@H](C(=O)NC)C(C)(C)C)C(=O)O	–

Ki [1] [nM]	Ki (Stromelysin-1) [nM]	SMILES	also measured
–	–	CCCc1ccc(CC[C@H](N[C@H](C)C(=O)O)C(=O)N[C@@H](CC(C)C)C(=O)Nc2ccccc2)cc1	ED50 (Mus musculus): 65 mg/kg
2400	1500	CCCC[C@@H](C[C@@H](CCc1cccc(-c2ccccc2)c1)C(=O)N[C@H](C(=O)NC)C(C)(C)C)C(=O)O	–
760	65	CCCC[C@@H](C[C@@H](CCc1ccc(/C=C/c2ccccc2)cc1)C(=O)N[C@H](C(=O)NC)C(C)(C)C)C(=O)O	–
210	74	CCCC[C@@H](C[C@@H](CCc1ccc(OCc2ccccc2)cc1)C(=O)N[C@H](C(=O)NC)C(C)(C)C)C(=O)O	–
47	140	CCCC[C@@H](C[C@@H](CCc1ccc(CCC)cc1)C(=O)N[C@H](C(=O)NC)C(C)(C)C)C(=O)O	–
14	9	CCCC[C@@H](C[C@@H](CCc1ccc(-c2ccc(C#N)cc2)cc1)C(=O)N[C@H](C(=O)NC)C(C)(C)C)C(=O)O	–
380	49	CCCC[C@@H](C[C@@H](CCc1ccc(CCc2ccccc2)cc1)C(=O)N[C@H](C(=O)NC)C(C)(C)C)C(=O)O	–
17	11	CCCC[C@@H](C[C@@H](CCc1ccc(-c2ccc(Br)cc2)cc1)C(=O)N[C@H](C(=O)NC)C(C)(C)C)C(=O)O	–
19	21	CCCC[C@@H](C[C@@H](CCc1ccc(-c2ccc(S(C)(=O)=O)cc2)cc1)C(=O)N[C@H](C(=O)NC)C(C)(C)C)C(=O)O	–
17	10	CCCC[C@@H](C[C@@H](CCc1ccc(-c2ccc(F)cc2)cc1)C(=O)N[C@H](C(=O)NC)C(C)(C)C)C(=O)O	clearance [2]: 1.3 mL/min/kg; half-life [3]: 4.4 h; Vd [4]: 0.2 L/kg; half-life [5]: 0.9 h; bioavailability [6]: 78%; Vd [7]: 0.32 L/kg; clearance [8]: 7.6 mL/min/kg; bioavailability [9]: 60%; Vd [10]: 0.2 L/kg; clearance [11]: 1.1 mL/min/kg; half-life [12]: 2.7 h
80	19	CCCC[C@@H](C[C@@H](CCc1ccc(-c2ccc(F)c(Cl)c2)cc1)C(=O)N[C@H](C(=O)NC)C(C)(C)C)C(=O)O	–
38	24	CCCC[C@@H](C[C@@H](CCc1ccc(-c2ccc(C(N)=O)cc2)cc1)C(=O)N[C@H](C(=O)NC)C(C)(C)C)C(=O)O	–
50	40	CCCC[C@@H](C[C@@H](CCc1ccc(-c2ccc(C(=O)N(C)C)cc2)cc1)C(=O)N[C@H](C(=O)NC)C(C)(C)C)C(=O)O	–
32	31	CCCC[C@@H](C[C@@H](CCc1ccc(-c2ccc(C(=O)OC)cc2)cc1)C(=O)N[C@H](C(=O)NC)C(C)(C)C)C(=O)O	–
6900	2000	CCCC[C@@H](C[C@@H](CCc1ccc(-c2cccc3ccccc23)cc1)C(=O)N[C@H](C(=O)NC)C(C)(C)C)C(=O)O	–
1600	1500	CCCC[C@@H](C[C@@H](CCc1ccc(-c2cc(Cl)cc(Cl)c2)cc1)C(=O)N[C@H](C(=O)NC)C(C)(C)C)C(=O)O	–
34	49	CCCC[C@@H](C[C@@H](CCc1ccc(-c2ccc(C(=O)NC)cc2)cc1)C(=O)N[C@H](C(=O)NC)C(C)(C)C)C(=O)O	–
25	13	CCCC[C@@H](C[C@@H](CCc1ccc(-c2ccc(Cl)cc2)cc1)C(=O)N[C@H](C(=O)NC)C(C)(C)C)C(=O)O	–
1800	350	CCCC[C@@H](C[C@@H](CCc1ccc(-c2ccc(-c3nnn[nH]3)cc2)cc1)C(=O)N[C@H](C(=O)NC)C(C)(C)C)C(=O)O	–
22	11	CCCC[C@@H](C[C@@H](CCc1ccc(CCC)cc1)C(=O)N[C@H](C(=O)Nc1ccncc1)C(C)(C)C)C(=O)O	–
21	13	CCCC[C@@H](C[C@@H](CCc1ccc(-c2ccc(OC)cc2)cc1)C(=O)N[C@H](C(=O)NC)C(C)(C)C)C(=O)O	–
280	27	CCCC[C@@H](C[C@@H](CCc1ccc(-c2cccc(N)c2)cc1)C(=O)N[C@H](C(=O)Nc1ccccc1)C(C)(C)C)C(=O)O	–
3600	1100	CCCC[C@@H](C[C@@H](CCc1ccc(-c2cccc(C(F)(F)F)c2)cc1)C(=O)N[C@H](C(=O)NC)C(C)(C)C)C(=O)O	–
–	–	CC(C)C[C@H](NC(=O)[C@H](CCc1ccccc1)N[C@H](C)C(=O)O)C(=O)Nc1ccccc1 [L-696418]	ED50 (Mus musculus): > 100 mg/kg
